From patent US20050107289A1, “Anti-microbial peptides and compositions” (priority 2001, published 2005)
Like-named read-outs stand apart in the source and are kept apart here. Non-standard residues stand in square brackets, D forms with d. Residues, ends and D or L forms follow the SMILES beside them.

How the values were obtained:
[1] = system: S. aureus (MRSA) ATCC 33591; format: cell-based, Staphylococcus aureus; conditions: Table 9
Procedure: (§1) The antimicrobial activity of the peptides was determined using a broth dilution assay essentially as descried in the guidelines of the National Committee for […] (NCCLS) [National Committee for Clinical Laboratory Standards. Methods for dilution antimicrobial susceptibility tests for bacteria that grow aerobically. Fourth edition. Approved Standard (1997). Document M7-A4. […] The microdilution method has the advantages of requiring less amount of peptide for each assay and the possibility of multiple simultaneous inoculations and was used in most studies. Several of the strains of bacteria tested are further described in Table 3.
(§2) Preparation of peptide solutions. Stock peptide solutions were prepared in 5% DMSO in aq. sucrose (9%). Determination of peptide concentrations was done by quantitative HPLC analysis using known concentrations of internal standards and/or by measuring UV absorption of tryptophane-containing peptide solutions in H2O (λ=280 εTrp: 5690). Serial 2-fold dilutions were made in the above DMSO/aq. sucrose (9%) mixture with concentrations ranging approximately 400-2 μg/ml and aliquots were dispensed in test tubes (100 μl) for the macrodilution test or in microtiter plates (20 μl) for the microdilution assays.
(§3) Inoculum preparation. Overnight cultures of different microorganisms grown in suitable media were diluted 4000 times to an approximate inoculum size of 2.5×10^5 cfu/ml.
(§4) Macrodilution method. Macrodilution methods were performed using procedures similar to those described in the National Committee for Clinical Laboratory Standards. Methods for dilution antimicrobial susceptibility tests for bacteria that grow aerobically. Fourth edition. Approved Standard (1997). Document M7-A4. (NCCLS,Villanova, Pa., 1997). Two ml aliquots of the above inoculum were dispensed to test tubes containing different peptide solutions.
(§5) Microdilution method. Microdilution methods were performed using procedures similar to those described in the National Committee for Clinical Laboratory Standards. Methods for dilution antimicrobial susceptibility tests for bacteria that grow aerobically. Fourth edition. Approved Standard (1997). Document M7-A4.

[2] = system: murine red blood cells; assay: Red blood cell hemolysis; format: cell-based, mouse
Procedure: Selectivity of cyclic peptides for bacterial over mammalian cells was evaluated by measuring red blood cell hemolytic activities as described in Tosteson, M. T. Holmes, S. J., Razin, M. and Tosteson, D. C. Melittin Lysis of Red Cells, J. Membrane Biol. 87, 35-44(1985). Heparinized murine blood was centrifuged at 1000×g for 10 minutes. The supernatant and the buffy coat were removed. Erythrocytes were washed three times with 0.9% saline solution and then resuspended to a concentration of 5% in saline containing 10% FBS (v/v). Red blood cells were then treated with serial dilutions of test peptides in a 96 well plate at 37° C. for 30 minutes. Control samples included a saline solution arid 1% Triton X-100 as 0 and 100% hemolysis, respectively. In some cases, mellitin was used as a further control. Mellitin is a linear peptide that is hemolytic against mammalian red blood cells in vitro at a concentration of about 10 μg/ml. Plates were centrifuged at 1000 g for 10 minutes. Aliquots of the supernatant were diluted 2 times with saline solution and the absorbance was measured at 560 nm.

[3] = system: vancomycin-resistant Enterococus faecalis (VRE)(ATCC 51575); format: cell-based, Enterococcus faecalis; design: key to VRE (in vitro activity): peptide concentration in μg/ml (broth dilution assay); conditions: Table 9
Procedure: as §1, §2, §3, §4, §5

[4] = media b: cation adjusted Meuller Hinton broth (MHBII)
[5] = media c: Brain Heart Infusion (BHI)
[6] = media a: anti-microbial media-3 (AM-3)

| Structure (SMILES) | MRSA (in vitro activity) [1, 4] | RBC Hemolysis (HD50) [2] | VRE (in vitro activity) ([3]; media b: MHBII) | VRE (in vitro activity) [3, 5] | MRSA (in vitro activity) [1, 6] | VRE (in vitro activity) ([3]; media a: AM-3) |
| --- | --- | --- | --- | --- | --- | --- |
| CC(C)C[C@@H]1NC(=O)[C@@H](CCCNC(=N)N)NC(=O)[C@H](CCC(N)=O)NC(=O)[C@@H](CCCNC(=N)N)NC(=O)[C@H](Cc2c[nH]c3ccccc23)NC(=O)[C@@H](Cc2c[nH]c3ccccc23)NC(=O)[C@H](CC(C)C)NC(=O)[C@@H](Cc2c[nH]c3ccccc23)NC1=O [SEQ ID NO:69, [QRLWLWWR]] (cyclo(Q[dR]L[dW]L[dW]W[dR])) | 6.3 | 35 | 6.3 |  |  |  |
| CC(C)C[C@@H]1NC(=O)[C@@H](Cc2c[nH]c3ccccc23)NC(=O)[C@H](C(C)C)NC(=O)[C@@H](CCCNC(=N)N)NC(=O)[C@H](CCC(N)=O)NC(=O)[C@@H](CCCNC(=N)N)NC(=O)[C@H](Cc2c[nH]c3ccccc23)NC(=O)[C@@H](Cc2c[nH]c3ccccc23)NC1=O [SEQ ID NO:70, [QRVWLWWR]] (cyclo(Q[dR]V[dW]L[dW]W[dR])) | 12.5 | 30 | 6.3 |  |  |  |
| CC(C)C[C@@H]1NC(=O)[C@@H](Cc2c[nH]c3ccccc23)NC(=O)[C@H](Cc2c[nH]c3ccccc23)NC(=O)[C@@H](CCCNC(=N)N)NC(=O)[C@H](CCC(N)=O)NC(=O)[C@@H](CCCNC(=N)N)NC(=O)[C@H](Cc2c[nH]c3ccccc23)NC(=O)[C@@H](Cc2c[nH]c3ccccc23)NC1=O [SEQ ID NO:71, [QRWWLWWR]] (cyclo(Q[dR]W[dW]L[dW]W[dR])) | 6.3 | 35 | 6.3 |  |  |  |
| CC(C)C[C@H]1NC(=O)[C@H](Cc2ccccc2)NC(=O)[C@@H](Cc2c[nH]cn2)NC(=O)[C@H](CCCCN)NC(=O)[C@@H](Cc2c[nH]cn2)NC(=O)[C@H](CCCCN)NC(=O)[C@@H](CC(C)C)NC(=O)[C@H](Cc2c[nH]c3ccccc23)NC1=O [SEQ ID NO:72, [KHKHFLWL]] (cyclo(K[dH]K[dH]F[dL]W[dL])) | 8 | 200 |  | 16 |  |  |
| CC(C)C[C@H]1NC(=O)[C@H](Cc2c[nH]c3ccccc23)NC(=O)[C@@H](Cc2c[nH]cn2)NC(=O)[C@H](CCCCN)NC(=O)[C@@H](Cc2c[nH]cn2)NC(=O)[C@H](CCCCN)NC(=O)[C@@H](CC(C)C)NC(=O)[C@H](Cc2c[nH]c3ccccc23)NC1=O [SEQ ID NO:73, [KHKHWLWL]] (cyclo(K[dH]K[dH]W[dL]W[dL])) | 18 | 150 |  | 18 |  |  |
| CC(C)C[C@H]1NC(=O)[C@H](Cc2c[nH]c3ccccc23)NC(=O)[C@@H](CCCNC(=N)N)NC(=O)[C@H](CCCCN)NC(=O)[C@@H](Cc2c[nH]cn2)NC(=O)[C@H](CCCCN)NC(=O)[C@@H](CC(C)C)NC(=O)[C@H](Cc2c[nH]c3ccccc23)NC1=O [SEQ ID NO:74, [KRWLWLKH]] (cyclo(K[dR]W[dL]W[dL]K[dH])) |  | >130 |  |  | 5 | 7 |
| CC(C)C[C@H]1NC(=O)[C@H](Cc2c[nH]c3ccccc23)NC(=O)[C@@H](CCCNC(=N)N)NC(=O)[C@H](CCCCN)NC(=O)[C@@H](CO)NC(=O)[C@H](CCCCN)NC(=O)[C@@H](CC(C)C)NC(=O)[C@H](Cc2c[nH]c3ccccc23)NC1=O [SEQ ID NO:75, [KRWLWLKS]] (cyclo(K[dR]W[dL]W[dL]K[dS])) |  | >48 |  |  | 9 | 22 |
| CC(C)C[C@H]1NC(=O)[C@H](Cc2ccccc2)NC(=O)[C@@H](CCCCN)NC(=O)[C@H](CCCCN)NC(=O)[C@@H](CO)NC(=O)[C@H](CCCCN)NC(=O)[C@@H](CC(C)C)NC(=O)[C@H](Cc2ccccc2)NC1=O [SEQ ID NO:76, [KSKKFLFL]] (cyclo(K[dS]K[dK]F[dL]F[dL])) | 5 | 100 |  | 10 |  |  |
| CC(C)C[C@H]1NC(=O)[C@H](Cc2c[nH]c3ccccc23)NC(=O)[C@@H](CCCCN)NC(=O)[C@H](CCCCN)NC(=O)[C@@H](CO)NC(=O)[C@H](CCCCN)NC(=O)[C@@H](CC(C)C)NC(=O)[C@H](Cc2c[nH]c3ccccc23)NC1=O [SEQ ID NO:77, [KSKKWLWL]] (cyclo(K[dS]K[dK]W[dL]W[dL])) | 13 | >220 |  | 27 |  |  |
| CC(C)C[C@H]1NC(=O)[C@H](C)NC(=O)[C@@H](CCCCN)NC(=O)[C@H](CO)NC(=O)[C@@H](CO)NC(=O)[C@H](CCCCN)NC(=O)[C@@H](CC(C)C)NC(=O)[C@H](C)NC1=O [SEQ ID NO:78, [KSSKALAL]] (cyclo(K[dS]S[dK]A[dL]A[dL])) | >240 | >240 |  | >240 |  |  |
| CC(C)C[C@H]1NC(=O)[C@H](Cc2ccccc2)NC(=O)[C@@H](CCCCN)NC(=O)[C@H](CO)NC(=O)[C@@H](CO)NC(=O)[C@H](CCCCN)NC(=O)[C@@H](CC(C)C)NC(=O)[C@H](Cc2ccccc2)NC1=O [SEQ ID NO:79, [KSSKFLFL]] (cyclo(K[dS]S[dK]F[dL]F[dL])) | 43 | >200 |  | 43 |  |  |
| CC(C)C[C@H]1NC(=O)[C@H](C(C)C)NC(=O)[C@@H](CC(C)C)NC(=O)[C@H](C(C)C)NC(=O)[C@@H](CCCCN)NC(=O)[C@H](CO)NC(=O)[C@@H](CO)NC(=O)[C@H](CCCCN)NC1=O [SEQ ID NO:80, [KSSKVLVL]] (cyclo(K[dS]S[dK]V[dL]V[dL])) | 22 | >180 |  | 180 |  |  |
| CC(C)C[C@H]1NC(=O)[C@H](Cc2c[nH]c3ccccc23)NC(=O)[C@@H](CCCCN)NC(=O)[C@H](CO)NC(=O)[C@@H](CO)NC(=O)[C@H](CCCCN)NC(=O)[C@@H](CC(C)C)NC(=O)[C@H](Cc2c[nH]c3ccccc23)NC1=O [SEQ ID NO:82, [KSSKWLWL]] (cyclo(K[dS]S[dK]W[dL]W[dL])) | 27 | >220 |  | 27 |  |  |
| CC(C)C[C@H]1NC(=O)[C@H](Cc2ccc(O)cc2)NC(=O)[C@@H](CCCCN)NC(=O)[C@H](CO)NC(=O)[C@@H](CO)NC(=O)[C@H](CCCCN)NC(=O)[C@@H](CC(C)C)NC(=O)[C@H](Cc2ccc(O)cc2)NC1=O [SEQ ID NO:83, [KSSKYLYL]] (cyclo(K[dS]S[dK]Y[dL]Y[dL])) | 85 | >340 |  | 170 |  |  |
| CC(C)C[C@H]1NC(=O)[C@H](Cc2c[nH]c3ccccc23)NC(=O)[C@@H](CO)NC(=O)[C@H](CCCCN)NC(=O)[C@@H](CO)NC(=O)[C@H](CCCNC(=N)N)NC(=O)[C@@H](CC(C)C)NC(=O)[C@H](Cc2c[nH]c3ccccc23)NC1=O [SEQ ID NO:84, [KSWLWLRS]] (cyclo(K[dS]W[dL]W[dL]R[dS])) |  | >62 |  |  | 9 | 12 |
| CC(C)C[C@@H]1NC(=O)[C@@H](Cc2c[nH]c3ccccc23)NC(=O)[C@H](CCCCN)NC(=O)[C@@H](Cc2c[nH]cn2)NC(=O)[C@H](CCCCN)NC(=O)[C@@H](Cc2c[nH]cn2)NC(=O)[C@H](CCCCN)NC(=O)[C@@H](Cc2c[nH]c3ccccc23)NC1=O [SEQ ID NO:85, [KHKHKWLW]] (cyclo(K[dH]K[dH]K[dW]L[dW])) | 6 | 150 |  | 6 |  |  |
| CC(C)C[C@H]1NC(=O)[C@H](CCCCN)NC(=O)[C@@H](Cc2c[nH]cn2)NC(=O)[C@H](CCC(N)=O)NC(=O)[C@@H](Cc2c[nH]cn2)NC(=O)[C@H](CCCCN)NC(=O)[C@@H](CC(C)C)NC(=O)[C@H](Cc2c[nH]c3ccccc23)NC1=O [SEQ ID NO:86, [KHQHKLWL]] (cyclo(K[dH]Q[dH]K[dL]W[dL])) | 100 | >200 |  | 100 |  |  |
